Like-named read-outs stand apart in the source and are kept apart here.
Tests used:
SKBR3 (ER neg) = assay: Cell proliferation assay (CellTiter Glo), SKBR3; format: cell-based; conditions: Homo sapiens
Description: (§1) Cell lines were obtained from ATCC. Estrogen was obtained from SIGMA, 4-hydroxytamoxifen was obtained from SIGMA, Bosutinib was used for these studies. Charcoal-stripped serum and phenol red-free medium was obtained from Invitrogen. CellTiter Glo was obtained from Promega.
(§2) Cell cultures. Proliferation assays with cells in complete fetal calf serum were performed with medium containing phenol red. For all assays examining estrogen-dependence, cells were cultured in phenol red-free medium; DMEM/F12 (MCF7), RPMI1640 (MDA-MB-361, T47D) MEM (BT20, MDA-MB-231) McCoys5A modified (SKBR3), Leibowitz' L15 medium supplemented with 10 ng/mL insulin (MDA-MB-435 and MDA-MB-468) with 10% fetal bovine serum supplemented with glutamine and gentamicin. For proliferation assays, trypsinized cells were subjected to three cycles of centrifugation and resuspension in phenol red-free medium supplemented with charcoal stripped medium (5% final), glutamine and Pen/Strep. Cells were plated on day 0, with or without estrogen (10 nM final concentration). On day 1, 4-hydroxytamoxifen and SKI-606 or DMSO were added as a serial dilution. Cells were incubated for 7 days, after which CellTiter Glo (Promega) was added as recommended by the manufacturer. After mixing and two hours incubation on the bench, plates were read on an Envision reader. […] The IC50 was calculated using a floating minima corresponding to the lowest luminescence value at 5 uM.
Cell proliferation assays were performed in two formats; a three day proliferation assay in fully supplemented medium with phenol red, and a 7 day proliferation assay in phenol red free medium supplemented with charcoal-stripped medium.
The complete medium data were obtained in 3-day assays, while stripped serum assays were extended for 7 days with one change of medium at day 5.

MDA-MB-231 (ER neg) = assay: Cell proliferation assay (CellTiter Glo), MDA-MB-231; format: cell-based; conditions: Homo sapiens
Description: as §1
as §2, with “The 10 uM data point was dropped for these two lines since there was a clear plateau prior to the sharp drop in luminescence observed at 10 uM compound. The” for “The”
Cell proliferation assays were performed in two formats; a three day proliferation assay in fully supplemented medium with phenol red, and a 7 day proliferation assay in phenol red free medium supplemented with charcoal-stripped medium. […] ER positive T47D cells were slightly more sensitive to SKI-606 in the presence of estrogen. BT20 cells were equally sensitive to SKI-606 in stripped serum medium, regardless of whether estrogen was present. […]

[1] = test system: advanced or metastatic breast cancer; assay: Phase 2 open-label study of bosutinib, efficacy; format: in vivo, human; conditions: 400 mg once-daily
Description: In a phase 2, open-label, study of bosutinib in subjects with advanced or metastatic breast cancer where bosutinib is given at 400 mg once-daily, 73 total patients were randomized. As of 9 Jun. […] All of the responding patients had ER/PgR+ metastatic disease, but were less heavily pretreated with chemotherapy than typical patients and none had received prior endocrine therapy. […] In that trial, the median PFS was 15 weeks for all patients, 15.6 weeks and 14.9 weeks in ER+ and/or PgR+ and ER+ and/or PgR+, HER2-patients subgroups, respectively. There were 51 ER/PgR+ patients enrolled in the trial and a little more than half had received prior endocrine therapy, out of them 33 patients were ER/PgR+, HER2-. The preliminary safety data available for 73 subjects as of 9 Jun. 2008 are consistent with data from other ongoing studies. TEAEs were most frequently associated with gastrointestinal disorders (diarrhea, 66%; nausea, 55%; vomiting, 47%; abdominal pain, 12%; dyspepsia, 10%), general disorders (fatigue, 26%, asthenia, 19%, peripheral oedema, 11%; pyrexia, 10%), infections and infestations (16%), metabolism disorders (ALT increase, 12%; AST increase, 12%, weight loss, 11%; anorexia, 18%), musculoskeletal disorders (anthralgia, 12%; back pain, 12%), headache (14%), and rash (14%). Out of all of these TEAEs, only gastrointestinal disorders (diarrhea, 64%; nausea, 51%; vomiting, 42%; abdominal pain, 10%), general disorders (fatigue, 16%, asthenia, 14%), metabolism disorders (ALT increase, 11%; AST increase, 10%; anorexia, 15%) and rash (10%) were considered at least possibly related to bosutinib.

COc1cc(Nc2c(C#N)cnc3cc(OCCCN4CCN(C)CC4)c(OC)cc23)c(Cl)cc1Cl [bosutinib]
IC50 (SKBR3 (ER neg); SK-BR-3, 72 h, 3 Day assay, complete medium (10% FCS), read-out: IC50 (uM) 10% FCS): 1.5 µM
IC50 (SKBR3 (ER neg); SK-BR-3, 168 h, 7 Day assay, charcoal stripped serum, no phenol red, 10 nM estrogen, read-out: IC50 (uM) E2): 1.38 µM
IC50 (SKBR3 (ER neg); SK-BR-3, 168 h, 7 Day assay, charcoal stripped serum, no phenol red, without estrogen, read-out: IC50 (uM) no E2): 1.43 µM
IC50 (MDA-MB-231 (ER neg); MDA-MB-231, 72 h, 3 Day assay, complete medium (10% FCS), read-out: IC50 (uM) 10% FCS): 4.3 µM
IC50 (MDA-MB-231 (ER neg); MDA-MB-231, 168 h, 7 Day assay, charcoal stripped serum, no phenol red, 10 nM estrogen, read-out: IC50 (uM) E2): 5.05 µM
IC50 (MDA-MB-231 (ER neg); MDA-MB-231, 168 h, 7 Day assay, charcoal stripped serum, no phenol red, without estrogen, read-out: IC50 (uM) no E2): 5.1 µM
tumor shrinkage in the near response [1]: 29%
clinical benefit ([1]; 73 patients, responders plus stable disease ≧24 weeks): 27.4%
near response ([1]; of 73 patients): 1
partial response ([1]; of 73 patients): 4 subjects
stable disease ≧24 weeks ([1]; of 73 patients): 13 patients
median PFS ([1]; ER+ and/or PgR+ subgroup): 15.6 weeks
median PFS ([1]; ER+ and/or PgR+, HER2- subgroup): 14.9 weeks
median PFS ([1]; all patients): 15 weeks

— patent US20100069340A1, “PHARMACEUTICAL COMPOSITIONS OF AN SRC KINASE INHIBITOR AND AN AROMATASE INHIBITOR” (Wyeth, priority 2008, published 2010)
